From patent US11766410B2, “Composition for preventing or treating dry eye syndrome containing α-humulene as active ingredient” (INJE UNIVERSITY INDUSTRY-ACADEMIC COOPERATION FOUNDATION, priority 2018, dated 2023)

Legend:
Type in all cases: in vivo, rat
MUC1 = assay: Mucin gene expression by real-time PCR in conjunctival epithelium after eye drop administration; conditions: 10 μl of 0.5 mg/ml eye drops twice a day for 5 days, right eye vs saline left eye; corrected by β-actin; FIG. 1
Experimental: (§1) α-humulene was administered to the eye in the following way: 6 male rats with a body weight of about 200 g were used, and the left eye was designated as the control group and the right eye was designated as the experimental group. Samples as eye drops were administered to the eye twice a day for 5 days and 10 μl of physiological saline was administered to the left eye (control group) and 10 μl of 0.5 mg/ml α-humulene diluted in physiological saline was administered to the right eye (experimental group) as eye drops. Animals were sacrificed to extract the conjunctival epithelium containing the fornix conjunctiva from the eyes and the extracted tissue was isolated and used for molecular biological analysis.
(§2) RNA was extracted from the ocular tissues of rats according to the manufacturers instructions using RNeasy mini kit from Qiagen (USA). The cDNA was synthesized using the cDNA synthesis kit of Qiagen (USA) from the isolated RNA, and then it was used for real-time polymerase chain reaction (real-time PCR). Real-time PCR was performed according to the manufacturer's instructions using Qiagen's Rotor-Gene Q 2 plex real-time DNA amplifier and Qiagen's two-step PCR SYBR kit, and the amount of amplified DNA was quantitatively compared. Specifically, after pre-denaturation at 95° C. for 5 minutes based on the cycling protocol, each 40 cycles were repeated at 95° C. for 5 seconds and at 60° C. for 10 seconds, and it was performed in the order of the melting step rising for 3 minutes from 60° C. to 95° C. The product amplified by the real-time PCR was quantified using the Delta delta Ct method, and corrected by the expression amount of β-actin for each sample.

MUC4 = assay: as above; conditions: 10 μl of 0.5 mg/ml eye drops twice a day for 5 days, right eye vs saline left eye; corrected by β-actin; FIG. 1
Experimental: as §1, §2

MUC6 = assay: as above; conditions: 10 μl of 0.5 mg/ml eye drops twice a day for 5 days, right eye vs saline left eye; corrected by β-actin; FIG. 1
Experimental: as §1, §2

animal model of dry eye = assay: Inhibition and treatment effect on dry corneal epithelial damage, tear amount by tear test strip; conditions: 10 μl of 0.5 mg/ml eye drop solution for 2 weeks, FIG. 2
Experimental: For experiments on dry corneal epithelial damage, an animal model of dry eye was prepared. It was induced by instill 1% atropine sulfate and 0.1% benzalkonium chloride twice a day for 2 weeks. After administration of the dry eye inducer, the experimental animals were applied by ocular administration according to the above-described administration method at an interval of 1 hour.
After administration of the sample for 2 weeks, the animals were anesthetized with isoflurane, and then the tear amount of each rat was measured using a Shrimer tear test strip.

In the case of `C/C1=C\CC/C(C)=C/CC(C)(C)/C=C/C1` [α-humulene], the “expression of MUC1” value (MUC1) is reported as “increased significantly”, the “expression of MUC4” value (MUC4) is reported as “increased significantly” and the “expression of MUC6” value (MUC6) is reported as “increased significantly”. The amount of tears (animal model of dry eye; AS/BAC-induced dry eye, tear test strip) was “significant difference in the amount of tears” and the “therapeutic effect on dry corneal epithelial damage” value (animal model of dry eye; dry eye induced by 1% atropine sulfate/0.1% benzalkonium chloride (AS/BAC)) was “showed the therapeutic effect of the corneal epithelium”.
